From patent publication US20070105928A1, “6-Pentafluorophenyl-triazolopyrimidines, method for their production and their use for combating pathogenic fungi, in addition to agents containing said substances” (priority 2003, published 2007)

Columns and labels:
Botrytis cinerea = assay: Activity against gray mold on bell pepper leaves caused by Botrytis cinerea, protective application; assay type: in vivo; settings: 63 ppm, bell pepper seedlings cultivar Neusiedler Ideal Elite, protective spray, assessed after 5 days; untreated plants 90% infected
Experimental: The active compounds were prepared as a stock solution with 0.25% by weight of active compound in acetone or DMSO. 1% by weight of the emulsifier Uniperol® EL (wetting agent having emulsifying and dispersing action based on ethoxylated alkylphenols) was added to this solution, and the mixture was diluted with water to the desired concentration. Bell pepper seedlings of the cultivar “Neusiedler Ideal Elite” were, after 2 to 3 leaves were well developed, sprayed to runoff point with an aqueous suspension having the concentration of active compound stated below. The next day, the treated plants were inoculated with a spore suspension of Botrytis cinerea which contained 1.7×10^6 spores/ml in a 2% strength aqueous biomalt solution. The test plants were then placed in a dark climatized chamber at 22-24° C. and high atmospheric humidity. After 5 days, the extent of the fungal infection on the leaves could be determined visually in %.

Pyrenophora teres = assay: Activity against net blotch of barley caused by Pyrenophora teres, protective application; assay type: in vivo, Pyrenophora [syn. Drechslera] teres; settings: 250 ppm, barley seedlings cultivar Hanna, protective spray, assessed after 6 days; untreated plants 90% infected
Experimental: The active compounds were prepared as a stock solution with 0.25% by weight of active compound in acetone or DMSO. 1% by weight of the emulsifier Uniperol® EL (wetting agent having emulsifying and dispersing action based on ethoxylated alkylphenols) was added to this solution, and the mixture was diluted with water to the desired concentration. Leaves of pot-grown barley seedlings of the cultivar “Hanna” were sprayed to run off point with an aqueous suspension having the concentration of active compound stated below. 24 hours after the spray coating had dried on, the test plants were inoculated with an aqueous suspension of Pyrenophora [syn. Drechslera] teres, the causative agent of net blotch. The test plants were subsequently placed in a greenhouse at 20-24° C. and 95-100% relative atmospheric humidity. After 6 days, the extent of development of the disease was determined visually in percent infection of the total leaf area.

With `Cc1nc2ncnn2c(N2CCC(C)CC2)c1-c1c(F)c(F)c(F)c(F)c1F` [Compound I-3, 5-methyl-6-(pentafluorophenyl)-7-(4-methylpiperidinyl)-1,2,4-triazolo[1,5a]pyrimidine] the “fungal infection on the leaves” value (Botrytis cinerea) was “no infection” and the “infection of the total leaf area” value (Pyrenophora teres) was 5%.
